According to BindingDB's records for doi:10.1021/jm100342z (Vernalis R&D, 2010):

Experiment: Binding affinity to Hsp70 nucleotide binding domain in human BT474 cells

With N#Cc1ccc(COC[C@H]2O[C@@H](n3c(NCc4ccc(Cl)c(Cl)c4)nc4c(N)ncnc43)[C@H](O)[C@@H]2O)cc1 [adenosine-derived inhibitor (Grp78), 13] as the compound, how does the IC50 read?
Its IC50 is 10.4 µM.
